Source: PubChem BioAssay AID248 (DTP/NCI, 2004)
Values joined by “and” are separate entries in the source; they are usually repeats but may differ in a detail not shown here. Identical values can stand only once. Toxic doses and inconclusive results are not listed. No stated cut-off is given here; in the data, active means T/C of 150% or more; inactive means T/C below 125%. Square brackets hold non-standard residues; d marks the D form. Peptide text beside a SMILES is read from it. * marks the point of attachment. ξ: configuration not given here. Cbz = O=C(OCc1ccccc1)*; ξT = CC(O)C(N)C(=O)O; OBn = c1ccc(CO*)cc1

Test system: L1210 leukemia ip in BDF1 mice, survival T/C
Assay: NCI In Vivo Anticancer Drug Screen. Data for tumor model L1210 Leukemia (intraperitoneal) in B6D2F1 (BDF1) mice
Conditions: endpoint: mean survival time, higher = longer survival
In short: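 Read-out is survival time, reported as the treated-group measurement over the vehicle-control measurement.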

[1] = dose: 100.0 mg/kg/injection, schedule: Q04DX002 (ip), vehicle: Klucel (hydroxypropylcellulose) (HPC)
[2] = dose: 200.0 mg/kg/injection, schedule: Q04DX002 (ip), vehicle: Klucel (hydroxypropylcellulose) (HPC)
[3] = dose: 100.0 mg/kg/injection, schedule: Q04DX003 (ip), vehicle: saline with Tween-80
[4] = dose: 200.0 mg/kg/injection, schedule: Q04DX003 (ip), vehicle: saline with Tween-80
[5] = dose: 400.0 mg/kg/injection, schedule: Q04DX003 (ip), vehicle: saline with Tween-80
[6] = dose: 100.0 mg/kg/injection, schedule: Q01DX009 (ip), vehicle: saline with Tween-80
[7] = dose: 100.0 mg/kg/injection, schedule: Q01DX001 (ip), vehicle: saline
[8] = dose: 100.0 mg/kg/injection, schedule: Q04DX003 (ip), vehicle: saline
[9] = dose: 200.0 mg/kg/injection, schedule: Q01DX001 (ip), vehicle: saline
[10] = dose: 400.0 mg/kg/injection, schedule: Q01DX001 (ip), vehicle: saline

Measured: T/C

CCCNC(=O)Oc1c(C)cccc1C
inactive: dose: 50.0 mg/kg/injection, schedule: Q01DX009 (ip), vehicle: carboxymethylcellulose (CMC) 105 % of control and 107 % of control | dose: 100.0 mg/kg/injection, schedule: Q01DX001 (ip), vehicle: other 95 % of control | dose: 100.0 mg/kg/injection, schedule: Q01DX009 (ip), vehicle: carboxymethylcellulose (CMC) 96 % of control | [1] 92 % of control | dose: 100.0 mg/kg/injection, schedule: Q04DX002 (ip), vehicle: carboxymethylcellulose (CMC) 103 % of control and 104 % of control | dose: 100.0 mg/kg/injection, schedule: Q04DX003 (ip), vehicle: other 103 % of control | dose: 200.0 mg/kg/injection, schedule: Q01DX001 (ip), vehicle: other 96 % of control | dose: 200.0 mg/kg/injection, schedule: Q01DX009 (ip), vehicle: carboxymethylcellulose (CMC) 103 % of control | [2] 103 % of control | dose: 200.0 mg/kg/injection, schedule: Q04DX002 (ip), vehicle: carboxymethylcellulose (CMC) 97 % of control and 88 % of control | dose: 200.0 mg/kg/injection, schedule: Q04DX003 (ip), vehicle: other 104 % of control | dose: 400.0 mg/kg/injection, schedule: Q01DX001 (ip), vehicle: other 102 % of control | dose: 400.0 mg/kg/injection, schedule: Q04DX003 (ip), vehicle: other 109 % of control

O=c1cc[nH]c(=O)o1
inactive: dose: 63.0 mg/kg/injection, schedule: Q01DX009 (ip), vehicle: water 89 % of control

CC(O)C(NC(=O)CNC(=O)OCc1ccccc1)C(=O)OCc1ccccc1 (stereo not drawn) (Cbz-Gly-[ξT]-OBn)
inactive: [3] 97 % of control | [4] 105 % of control | [5] 97 % of control

Fc1ccc(NC(=S)SCc2ccc(Cl)cc2)cc1F
inactive: [3] 102 % of control | [4] 91 % of control | [5] 102 % of control

CC1(C)CSCC(C)(C)C(=O)C1=O
inactive: dose: 50.0 mg/kg/injection, schedule: Q04DX002 (ip), vehicle: saline with Tween-80 100 % of control | dose: 100.0 mg/kg/injection, schedule: Q04DX002 (ip), vehicle: saline with Tween-80 109 % of control | dose: 200.0 mg/kg/injection, schedule: Q04DX002 (ip), vehicle: saline with Tween-80 103 % of control

O=c1cc(/C=N/Nc2ccc([N+](=O)[O-])cc2[N+](=O)[O-])c2cccc3c2n1CCC3
inactive: [6] 93 % of control | [3] 98 % of control | [4] 101 % of control | dose: 400.0 mg/kg/injection, schedule: Q01DX009 (ip), vehicle: saline with Tween-80 93 % of control | [5] 102 % of control

CC(=O)C1CC2C=CCC(C2)C1 (stereo not drawn)
inactive: dose: 100.0 mg/kg/injection, schedule: Q01DX001 (ip), vehicle: saline with Tween-80 95 % of control | dose: 200.0 mg/kg/injection, schedule: Q01DX001 (ip), vehicle: saline with Tween-80 90 % of control | dose: 400.0 mg/kg/injection, schedule: Q01DX001 (ip), vehicle: saline with Tween-80 96 % of control

CC(C(O)c1cccs1)C(O)(C(F)(F)F)C(F)(F)F (stereo not drawn)
inactive: [3] 102 % of control | [4] 91 % of control | [5] 88 % of control

COC(c1ccccc1)(c1ccccc1)C(C)O (stereo not drawn)
inactive: dose: 50.0 mg/kg/injection, schedule: Q01DX009 (ip), vehicle: saline with Tween-80 87 % of control | [6] 97 % of control | dose: 200.0 mg/kg/injection, schedule: Q01DX009 (ip), vehicle: saline with Tween-80 103 % of control

CCCCC(C)C1(C)C(=O)NC(=O)NC1=O (stereo not drawn)
inactive: dose: 75.0 mg/kg/injection, schedule: Q01DX001 (ip), vehicle: saline 105 % of control | dose: 150.0 mg/kg/injection, schedule: Q01DX001 (ip), vehicle: saline 103 % of control | dose: 300.0 mg/kg/injection, schedule: Q01DX001 (ip), vehicle: saline 105 % of control

O=C(Nc1cccc(C(F)(F)F)c1)OCCOc1ccc(Br)cc1
inactive: dose: 100.0 mg/kg/injection, schedule: Q01DX009 (ip), vehicle: Klucel (hydroxypropylcellulose) (HPC) 98 % of control | dose: 200.0 mg/kg/injection, schedule: Q01DX009 (ip), vehicle: Klucel (hydroxypropylcellulose) (HPC) 96 % of control | dose: 400.0 mg/kg/injection, schedule: Q01DX009 (ip), vehicle: Klucel (hydroxypropylcellulose) (HPC) 92 % of control

Nc1nc2c(c(-c3ccccc3)n1)CN(CCC(=O)O)C2=O
inactive: [7] 103 % of control | [8] 98 % of control | [9] 107 % of control | dose: 200.0 mg/kg/injection, schedule: Q04DX003 (ip), vehicle: saline 100 % of control | [10] 100 % of control | dose: 400.0 mg/kg/injection, schedule: Q04DX003 (ip), vehicle: saline 98 % of control

O=CNc1cc2c3c(c1)CCCN3CCC2
inactive: dose: 12.5 mg/kg/injection, schedule: Q01DX001 (ip), vehicle: saline 102 % of control | dose: 25.0 mg/kg/injection, schedule: Q01DX001 (ip), vehicle: saline 108 % of control | dose: 25.0 mg/kg/injection, schedule: Q01DX009 (ip), vehicle: saline 105 % of control | dose: 50.0 mg/kg/injection, schedule: Q01DX001 (ip), vehicle: saline 107 % of control | dose: 50.0 mg/kg/injection, schedule: Q01DX009 (ip), vehicle: saline 106 % of control | [7] 100 % of control

CCN(CC)CCOc1ccccc1C(C)C
inactive: dose: 20.0 mg/kg/injection, schedule: Q04DX003 (ip), vehicle: saline 118 % of control | dose: 40.0 mg/kg/injection, schedule: Q04DX003 (ip), vehicle: saline 97 % of control | dose: 80.0 mg/kg/injection, schedule: Q04DX003 (ip), vehicle: saline 94 % of control | [8] 101 % of control

O=C1/C(=C\c2cccc3ccccc23)N2CCC1CC2
inactive: [1] 100 % of control | [2] 96 % of control | dose: 400.0 mg/kg/injection, schedule: Q04DX002 (ip), vehicle: Klucel (hydroxypropylcellulose) (HPC) 104 % of control

CCCCCCCCCC(=O)N(C)OC
inactive: [3] 87 % of control | [4] 88 % of control | [5] 92 % of control

COc1cc2c(cc1OCc1ccccc1)C(c1cc(OC)c(OC)c(OC)c1)=C1C(=O)OCC1C2 (stereo not drawn)
inactive: [7] 98 % of control | [9] 97 % of control | [10] 97 % of control

CCCC[S][Pb]([CH2]C)([CH2]C)[CH2]C
inactive: dose: 1.56 mg/kg/injection, schedule: Q01DX009 (sc), vehicle: olive oil, sesame oil, peanut oil 103 % of control | dose: 3.12 mg/kg/injection, schedule: Q01DX009 (sc), vehicle: olive oil, sesame oil, peanut oil 99 % of control | dose: 6.25 mg/kg/injection, schedule: Q01DX009 (sc), vehicle: olive oil, sesame oil, peanut oil 96 % of control and 100 % of control | dose: 12.5 mg/kg/injection, schedule: Q04DX002 (ip), vehicle: saline with Tween-80 111 % of control | dose: 25.0 mg/kg/injection, schedule: Q04DX002 (ip), vehicle: saline with Tween-80 96 % of control
